Source: patent USRE34918E, “Azaazulene compounds which are useful as antiallergic and antiinflammatory agents” (Kaken Pharmaceutical Co., Ltd., priority 1988, dated 1995)

The compounds below were run on histamine release from rat mast cell (assay: Inhibitory activity against histamine release from rat mast cell). Conditions: 10 μg/ml, read-out: Inhibitory rate against histamine release.
Assay type: cell-based
Description: An anti-dinitrophenylated-ovalbumin (anti DNP-OVA) rat antiserum having 800 of PCA titer in homologous passive cutaneous anaphylaxis reaction in rats for 48 hours was diluted double with physiological saline, and 1 ml of diluted antiserum was injected intraperitoneally into rats to be passively sensitized. On the next day, peritoneal exudation cell (hereinafter referred to as "PEC") was collected. The collected PEC was washed with a medium containing 0.1% BSA, and 1.5×10^5 of the PEC were added to each test tube. AFter incubation at 37° C. for 10 minutes, 50 μl of test compound solution in a same medium was added thereto. After 30 seconds, 50 μl of antigen solution (DVA-OVA 100 μg/ml) was further added thereto to give the total amount of 500 μl of the reaction mixture, and histamine release reaction was induced. After 10 minutes, 1 ml of physiological saline with cooled Tris buffered solution containing 1 mM EDTA were added thereto to stop the reaction. After centrifugation, the amount of histamine in supernatant was determined by fluorescence method according to the method of Shore et al [cf. J. Pharmacol. Exp. Ther., 127, 182 (1959)]. Inhibition rate against histamine release was calculated according to the following equation.
Inhibition rate against histamine release [formula] M: Amount of histamine in supernatant under addition of antigen and non-addition of test compound
S: Amount of histamine in supernatant under addition of antigen and test compound
B: Amount of histamine in supernatant under non-addition of antigen and test compound.
The test compound was used in a concentration of 10 μg/ml.

In order of falling inhibition at 10 µg/mL:
1. Cn1c2cccccc-2c(-c2nnn[nH]2)c1=O [Example 15]  96.1%
2. O=c1c(-c2nn[nH]n2)c2cccccc-2n1CCc1ccccc1 [Example 26]  94.1%
3. O=c1c(-c2nn[nH]n2)c2cccccc-2n1Cc1ccc(O)cc1 [Example 40]  93.5%
4. COc1ccc(Cn2c3cccccc-3c(-c3nn[nH]n3)c2=O)cc1 [Example 39]  93%
5. O=c1c(-c2nn[nH]n2)c2cccccc-2n1CCCc1ccccc1 [Example 28]  92.6%
6. CCCCCCn1c2cccccc-2c(-c2nnn[nH]2)c1=O [Example 20]  91.1%
7. O=c1c(-c2nnn[nH]2)c2cccccc-2n1Cc1ccc(F)cc1 [Example 8, 1-(4-Fluorobenzyl)-3-(5-tetrazolyl)-1-azaazulane-2-one]  89.6%
8. O=c1[nH]c2cccccc-2c1-c1nnn[nH]1 [Example 14]  89.6%
9. CC(C)c1cccc2c(-c3nn[nH]n3)c(=O)n(CCc3ccccc3)c-2c1 [Example 27]  89.6%
10. CC(C)c1cccc2n(Cc3ccc(Cl)cc3)c(=O)c(-c3nn[nH]n3)c-2c1 [Example 56]  88%
11. O=c1c(-c2nn[nH]n2)c2cccccc-2n1Cc1ccccc1F [Example 34]  87.3%
12. CCOCCn1c2cccccc-2c(-c2nnn[nH]2)c1=O [Example 23]  87.2%
13. N#CCCCn1c2cccccc-2c(-c2nnn[nH]2)c1=O [Example 24]  86.3%
14. O=c1c(-c2nnn[nH]2)c2cccccc-2n1Cc1ccc(Cl)cc1 [Example 11, 1-(4-Chlorobenzyl)-3-(5-tetrazolyl)-1-azaazulane-2-one]  85.8%
15. C=CCn1c2cccccc-2c(-c2nnn[nH]2)c1=O [Example 22]  84.2%
16. CC(C)n1c2cccccc-2c(-c2nn[nH]n2)c1=O [Example 52]  81.2%
17. O=c1c(-c2nn[nH]n2)c2cccccc-2n1CC=Cc1ccccc1 [Example 42]  78.2%
18. O=c1c(-c2nn[nH]n2)c2cccccc-2n1CCCCc1ccccc1 [Example 31]  70%
19. O=c1c(-c2nn[nH]n2)c2cccccc-2n1Cc1cccc(F)c1 [Example 33]  67.2%
20. CC(C)c1cccc2n(Cc3cccs3)c(=O)c(-c3nn[nH]n3)c-2c1 [Example 55]  65.8%
21. CCOC(=O)c1ccc(Cn2c3cccccc-3c(-c3nn[nH]n3)c2=O)cc1 [Example 37]  64.8%
22. CC(C)c1cccc2n(CCc3ccc(O)c(O)c3)c(=O)c(-c3nnn[nH]3)c-2c1 [Example 12, 1-(3,4-Dihydroxyphenylethyl)-5-iso-propyl-3-(5-tetrazolyl)-1-azaazulane-2-one]  60%
23. CCCc1c(OCCCn2c3cccc(C(C)C)cc-3c(-c3nn[nH]n3)c2=O)ccc(C(C)=O)c1O [Example 50]  59.8%
24. CC(C)c1cccc2n(Cc3ccc4ccccc4n3)c(=O)c(-c3nn[nH]n3)c-2c1 [Example 53]  56.3%
25. O=c1c(-c2nn[nH]n2)c2cccccc-2n1CCCCl [Example 54]  55.5%
26. N#Cc1ccc(Cn2c3cccccc-3c(-c3nn[nH]n3)c2=O)cc1 [Example 36]  43.2%
27. O=C(Cn1c2cccccc-2c(-c2nn[nH]n2)c1=O)c1ccc(Cl)cc1 [Example 41]  32.3%
28. O=c1c(-c2nn[nH]n2)c2cccccc-2n1Cc1ccc(Cl)cc1Cl [Example 45]  19.3%
29. Cc1cc(C)c(Cn2c3cccccc-3c(-c3nn[nH]n3)c2=O)c(C)c1 [Example 47]  12.6%
30. CCCCCCCCCCCCCCCCCCn1c2cccccc-2c(-c2nnn[nH]2)c1=O [Example 21]  10.1%
31. O=c1c(-c2nnn[nH]2)c2cccccc-2n1CCC(c1ccccc1)c1ccccc1 [Example 25]  4.6%
32. O=c1c(-c2nn[nH]n2)c2cccccc-2n1CCCCCc1ccccc1 [Example 32]  1.5%
